Source: patent US12329733B2, “Acetyl-leucine or a pharmaceutically acceptable salt thereof for improved mobility and cognitive function” (INTRABIO LTD., priority 2016, dated 2025)

Columns and labels:
[1] = system: patients with postural imbalance / gait disorder; subjects; test: clinical examination and patient/family reports of balance, gait, dizziness and falls; assay type: in vivo, human
Description: In addition to the mobility assessments disclosed above, mobility in a subject having a mobility disorder associated with ageing may be tested, for example, using assessments of balance and/or through monitoring the number of falls experienced by the subject.

[2] = system: rat model of an acute unilateral labyrinthectomy; conditions: by activation of the vestibulo-cerebellum and deactivation of the posterolateral thalamus; ref (4); cited from earlier work

Row | SMILES | improvement during treatment ([1]; Example 2: person, balance disorder, Datscan borderline pathological) | improvement during treatment ([1]; Example 5: patient, progressive gait disorder) | effect on postural compensation [2]
1 | N[C@@H](Cc1ccc(O)c(O)c1)C(=O)O [L-Dopa] | no improvement was observed | No improvement was observed | –
2 | CC(=O)N[C@@H](CC(C)C)C(=O)O [N-acetyl-L-leucine] | – | – | significant effect
